The values below come from patent US20140155445A1, “Compounds and Methods for Treating Cancer and Diseases of the Central Nervous System” (Osta Biotechnologies Inc., priority 2007, published 2014).

The target in one experiment is T1, HO-1 (rat spleen) (Rattus norvegicus, UniProt P06762).
T1 construct: Spleen microsomes were used as a source of HO-1; from tissue; host or cells: spleen microsomal fraction of adult male Sprague-Dawley rats
T1 sequence (P06762 1-289): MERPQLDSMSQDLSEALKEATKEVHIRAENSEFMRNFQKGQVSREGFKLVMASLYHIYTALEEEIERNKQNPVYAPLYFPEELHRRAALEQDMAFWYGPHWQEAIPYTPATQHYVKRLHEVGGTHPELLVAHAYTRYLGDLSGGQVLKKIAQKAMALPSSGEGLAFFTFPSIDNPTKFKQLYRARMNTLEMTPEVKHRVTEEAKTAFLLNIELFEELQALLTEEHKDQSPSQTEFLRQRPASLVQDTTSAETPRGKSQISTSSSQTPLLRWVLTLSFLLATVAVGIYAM
Briefly: HO enzymatic activity in rat spleen microsomal fraction (CO formed from methemalbumin, gas chromatography). The format is biochemical.

In a further experiment the target is T2, HO-2 (rat brain) (Rattus norvegicus, UniProt P23711).
T2 construct: brain microsomes were used as a source of HO-2; from tissue; host or cells: brain microsomal fraction of adult male Sprague-Dawley rats
T2 sequence (P23711 1-315): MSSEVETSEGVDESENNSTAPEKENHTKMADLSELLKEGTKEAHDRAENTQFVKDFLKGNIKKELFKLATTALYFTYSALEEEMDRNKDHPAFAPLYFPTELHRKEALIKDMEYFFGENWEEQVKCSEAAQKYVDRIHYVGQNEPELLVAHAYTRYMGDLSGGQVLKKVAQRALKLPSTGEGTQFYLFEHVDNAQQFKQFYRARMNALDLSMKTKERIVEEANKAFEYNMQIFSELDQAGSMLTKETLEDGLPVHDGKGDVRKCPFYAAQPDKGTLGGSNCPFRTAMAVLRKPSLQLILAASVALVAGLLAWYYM
Briefly: HO enzymatic activity in rat brain microsomal fraction (CO formed from methemalbumin, gas chromatography). Type of experiment: biochemical.

The mark [1] stands for this setting: rat spleen microsomes, average ± standard deviation of replicate experiments, read-out: IC50 HO-1 (rat spleen)/μM.
Setting [2] is: rat brain microsomes, average ± standard deviation of replicate experiments, read-out: IC50 HO-2 (rat brain)/μM.

SMILES strings stand for the structures. Structures can show the parent of a compound that is named as a salt. Where two headings read alike, the source gives them in different places.

With `c1ccc(CCCn2ccnc2)cc1` [1-(3-Phenyl-propyl)-1H-imidazole hydrochloride], the IC50 on HO-1 (rat spleen) (setting [1]) was 14 ± 4 µM; on HO-2 (rat brain) (setting [2]), above 100 µM.

For the molecule `[O-][S+](CCCn1ccnc1)c1ccccc1` (centres unmarked) [1-(3-benzenesulfinyl-propyl)-1H-imidazole hydrochloride], the IC50 turned out to be 3.7 ± 0.4 µM at HO-1 (rat spleen) (setting [1]) and 22 ± 3 µM at HO-2 (rat brain) (setting [2]).

Consider `c1ccc(OCCCn2ccnc2)cc1` [1-(3-phenoxy-propyl)-1H-imidazole hydrochloride], for which the IC50 came out at 42 ± 13 µM on HO-1 (rat spleen) (setting [1]) and 206 ± 96 µM on HO-2 (rat brain) (setting [2]).

Turning to `c1ccc(SCCCn2ccnc2)cc1` [1-(3-phenylsulfanyl-propyl)-1H-imidazole hydrochloride], the values for the IC50 on HO-1 (rat spleen) (setting [1]) and on HO-2 (rat brain) (setting [2]) were 2.4 ± 0.2 µM and 16 ± 2 µM, respectively.

Regarding `O=C(CCc1ccccc1)Cn1cnc(Cl)c1Cl` [1-(4,5-Dichloro-imidazol-1-yl)-4-phenyl-butan-2-one hydrochloride], the IC50 on HO-1 (rat spleen) (setting [1]) and at HO-2 (rat brain) (setting [2]) was above 100 µM throughout.

`O=C(CCc1ccccc1)Cn1cnc(-c2ccccc2)c1-c1ccccc1` [1-(4,5-Diphenyl-imidazol-1-yl)-4-phenyl-butan-2-one hydrochloride]: the values for the IC50 on HO-1 (rat spleen) (setting [1]) and on HO-2 (rat brain) (setting [2]) were 40 ± 2 µM and above 100 µM, respectively.

Take `c1cn(Cc2ccc(Cn3ccnc3)cc2)cn1` [1-(4-(1H-Imidazol-1-ylmethyl)benzyl)-1H-imidazole dihydrochloride]: the IC50 at HO-1 (rat spleen) (setting [1]) was 86 ± 30 µM; at HO-2 (rat brain) (setting [2]) it was above 100 µM.

As for `O=C(Cn1ccnc1)c1ccc(OCc2ccccc2)cc1` [1-(4-Benzyloxy-phenyl)-2-(1H-imidazol-1-yl)-ethanone], the IC50 on HO-1 (rat spleen) (setting [1]) was 11 ± 3 µM; at HO-2 (rat brain) (setting [2]), above 100 µM.

For `O=C(CCc1ccccc1)Cn1cnc(Br)c1` [1-(4-Bromo-imidazol-1-yl)-4-phenyl-butan-2-one], the IC50 on HO-1 (rat spleen) (setting [1]) and at HO-2 (rat brain) (setting [2]) was above 100 µM in each case.

As for `O=C(Cn1cncn1)c1ccc(Br)cc1` [1-(4-Bromo-phenyl)-2-[1,2,4]triazol-1-yl-ethanone], the IC50 at HO-1 (rat spleen) (setting [1]) stood at 2.7 ± 0.5 µM; at HO-2 (rat brain) (setting [2]) it was 50 ± 24 µM.

On to `O=C(Cn1cncn1)c1ccc([N+](=O)[O-])cc1` [1-(4-Nitro-phenyl)-2-[1,2,4]triazol-1-yl-ethanone hydrochloride], for which the IC50 on HO-1 (rat spleen) (setting [1]) is 19.2 ± 0.5 µM; on HO-2 (rat brain) (setting [2]), above 100 µM.

As to `[O-][S+](CCCCn1ccnc1)c1ccccc1` (centres unmarked) [1-(4-benzenesulfinyl-butyl)-1H-imidazole hydrochloride], the IC50 at HO-1 (rat spleen) (setting [1]) is 18.44 ± 0.04 µM; on HO-2 (rat brain) (setting [2]), 31 ± 5 µM.

Consider `O=C(Cn1ccnc1)c1ccc(Cc2ccccc2)cc1` [1-(4-benzyl-phenyl)-2-imidazol-1-yl-ethanone hydrochloride], for which the IC50 at HO-1 (rat spleen) (setting [1]) was 1.99 ± 0.05 µM; at HO-2 (rat brain) (setting [2]) it was 2.3 ± 0.2 µM.

In the case of `Clc1ccc(/C(Cn2ccnc2)=N/OCc2ccc(Br)cc2)cc1` [1-(4-chloro-phenyl)-2-imidazol-1-yl-ethanone O-(4-bromo-benzyl)-oxime hydrochloride], the IC50 was determined as 8.3 ± 0.9 µM at HO-1 (rat spleen) (setting [1]) and 51 ± 26 µM on HO-2 (rat brain) (setting [2]).

For the molecule `O/N=C(\Cn1ccnc1)c1ccc(Cl)cc1` [1-(4-chloro-phenyl)-2-imidazol-1-yl-ethanone oxime], the IC50 is 46 ± 8 µM on HO-1 (rat spleen) (setting [1]) and above 100 µM on HO-2 (rat brain) (setting [2]).

Take `O=C(Cn1ccnc1)c1ccc(F)cc1` [1-(4-fluoro-phenyl)-2-imidazol-1-yl-ethanone hydrochloride]: the values for the IC50 at HO-1 (rat spleen) (setting [1]) and at HO-2 (rat brain) (setting [2]) were 2.1 ± 0.1 µM and 35 ± 3 µM, respectively.

For the molecule `c1ccc(OCCCCn2ccnc2)cc1` [1-(4-phenoxy-butyl)-1H-imidazole hydrochloride], the IC50 on HO-1 (rat spleen) (setting [1]) turned out to be 4 ± 1 µM; at HO-2 (rat brain) (setting [2]), 4.6 ± 0.5 µM.

For the molecule `c1ccc(CCCCn2ccnc2)cc1` [1-(4-phenyl-butyl)-1H-imidazole hydrochloride], the IC50 was 3.5 ± 0.9 µM at HO-1 (rat spleen) (setting [1]) and above 100 µM on HO-2 (rat brain) (setting [2]).

`c1ccc(SCCCCn2ccnc2)cc1` [1-(4-phenylsulfanyl-butyl)-1H-imidazole hydrochloride]: the IC50 on HO-1 (rat spleen) (setting [1]) was found to be 1.2 ± 0.2 µM; at HO-2 (rat brain) (setting [2]) it was 5 ± 3 µM.

For `O=C(Cn1ccnc1)c1ccc(-c2ccc(Br)cc2)cc1` [1-(4′-bromo-biphenyl-4-yl)-2-imidazol-1-yl-ethanone], the results for the IC50 at HO-1 (rat spleen) (setting [1]) and at HO-2 (rat brain) (setting [2]) were 1.5 ± 0.5 µM and 0.43 ± 0.07 µM, respectively.

`O=C(Cn1cncn1)c1ccc2c(c1)CCCC2` [1-(5,6,7,8-tetrahydro-naphthalen-2-yl)-2-[1,2,4]triazol-1-yl-ethanone]: the IC50 amounted to 0.24 ± 0.04 µM at HO-1 (rat spleen) (setting [1]) and 4 ± 1 µM at HO-2 (rat brain) (setting [2]).

As to `O=C(CCc1ccccc1)Cn1cncc1Br` [1-(5-Bromo-1H-imidazol-1-yl)-4-phenyl-2-butanone], the IC50 on HO-1 (rat spleen) (setting [1]) was 22 ± 2 µM; on HO-2 (rat brain) (setting [2]), above 100 µM.

For the molecule `CS(=O)(=O)c1nnnn1CC(=O)CCc1ccccc1` [1-(5-Methanesulfonyl-tetrazol-1-yl)-4-phenyl-butan-2-one], the IC50 at HO-1 (rat spleen) (setting [1]) and on HO-2 (rat brain) (setting [2]) was above 100 µM in each case.

Turning to `CS(=O)(=O)c1nnn(CC(=O)CCc2ccccc2)n1` [1-(5-Methanesulfonyl-tetrazol-2-yl)-4-phenyl-butan-2-one], the IC50 on HO-1 (rat spleen) (setting [1]) and on HO-2 (rat brain) (setting [2]) was above 100 µM each time.

With `CSc1ncnn1CC(=O)CCc1ccccc1` [1-(5-Methylsulfanyl-[1,2,4]triazol-1-yl)-4-phenyl-butan-2-one hydrochloride], the IC50 at HO-1 (rat spleen) (setting [1]) and at HO-2 (rat brain) (setting [2]) was above 100 µM in each case.

For `CSc1nnnn1CC(=O)CCc1ccccc1` [1-(5-Methylsulfanyl-tetrazol-1-yl)-4-phenyl-butan-2-one], the IC50 on HO-1 (rat spleen) (setting [1]) and on HO-2 (rat brain) (setting [2]) was above 100 µM in each case.

With `CSc1nnn(CC(=O)CCc2ccccc2)n1` [1-(5-Methylsulfanyl-tetrazol-2-yl)-4-phenyl-butan-2-one], the IC50 at HO-1 (rat spleen) (setting [1]) and on HO-2 (rat brain) (setting [2]) was above 100 µM each time.

For `c1ccc(CCCCCn2ccnc2)cc1` [1-(5-phenyl-pentyl)-1H-imidazole hydrochloride], the IC50 on HO-1 (rat spleen) (setting [1]) was found to be 2.8 ± 0.5 µM; on HO-2 (rat brain) (setting [2]), 20 ± 15 µM.

Consider `Cl.c1cn(CC2OCCO2)cn1` [1-((1,3-Dioxolan-2-yl)methyl)-1H-imidazole hydrochloride], for which, on HO-1 (rat spleen) (rat spleen microsomes, average ± standard deviation of replicate experiments), the “IC50 HO-1 (rat spleen)/μM” value was “Inactive”. Besides, the “IC50 HO-2 (rat brain)/μM” value against HO-2 (rat brain) (rat brain microsomes, average ± standard deviation of replicate experiments) is “Inactive”.

Consider `O=C(CCc1ccccc1)Cn1nc2ccccc2n1` [1-Benzotriazol-2-yl-4-phenyl-butan-2-one], for which the IC50 at HO-1 (rat spleen) (setting [1]) and at HO-2 (rat brain) (setting [2]) was above 100 µM each time.

Take `c1ccc(Cn2ccnc2)cc1` [1-Benzyl-1H-imidazole hydrochloride]: the IC50 is 44 ± 9 µM against HO-1 (rat spleen) and above 100 µM on HO-2 (rat brain).

In the case of `O=C(Cn1cncn1)c1ccc(-c2ccccc2)cc1` [1-Biphenyl-4-yl-2-[1,2,4]triazol-1-yl-ethanone], the IC50 on HO-1 (rat spleen) (setting [1]) was found to be 0.74 ± 0.05 µM; on HO-2 (rat brain) (setting [2]), 7 ± 4 µM.

In the case of `CC(C)c1ccc(CCC(=O)Cn2ccnc2)cc1` [1-Imidazol-1-yl-4-(4-isopropyl-phenyl)-butan-2-one hydrochloride], the IC50 came to 0.163 ± 0.009 µM on HO-1 (rat spleen) (setting [1]) and 0.9 ± 0.2 µM at HO-2 (rat brain) (setting [2]).

As to `Cc1ccc(CCC(=O)Cn2ccnc2)cc1` [1-Imidazol-1-yl-4-(4-methylphenyl)butan-2-one hydrochloride], the IC50 on HO-1 (rat spleen) (setting [1]) worked out at 0.76 ± 0.01 µM; on HO-2 (rat brain) (setting [2]), 3.7 ± 0.1 µM.

In the case of `O=C(Cn1cncn1)c1ccc2ccccc2c1` [1-Naphthalen-2-yl-2-[1,2,4]triazol-1-yl-ethanone hydrochloride], the IC50 was determined as 0.7 ± 0.1 µM on HO-1 (rat spleen) (setting [1]) and 42 ± 10 µM on HO-2 (rat brain) (setting [2]).

On to `c1ccc(CCn2ccnc2)cc1` [1-Phenethyl-1H-imidazole], for which the IC50 is 72 ± 11 µM on HO-1 (rat spleen) (setting [1]) and above 100 µM on HO-2 (rat brain) (setting [2]).

In the case of `c1ccc(-n2ccnc2)cc1` [1-Phenyl-1H-imidazole hydrochloride], the IC50 at HO-1 (rat spleen) (setting [1]) and at HO-2 (rat brain) (setting [2]) was above 100 µM each time.

For the molecule `Clc1ccc(C2(Cn3ccnc3)OCCO2)c(Cl)c1` [1-[2-(2,4-dichloro-phenyl)-[1,3]dioxolan-2-ylmethyl]-1H-imidazole hydrochloride], the IC50 was 29 ± 14 µM on HO-1 (rat spleen) (setting [1]) and above 100 µM on HO-2 (rat brain) (setting [2]).

Turning to `Clc1ccc(C2(Cn3ccnc3)OCCO2)cc1Cl` [1-[2-(3,4-dichloro-phenyl)-[1,3]dioxolan-2-ylmethyl]-1H-imidazole], the IC50 was 8 ± 2 µM on HO-1 (rat spleen) (setting [1]) and above 100 µM at HO-2 (rat brain) (setting [2]).

Take `Brc1cccc(C2(Cn3ccnc3)OCCO2)c1` [1-[2-(3-bromo-phenyl)-[1,3]dioxolan-2-ylmethyl]-1H-imidazole hydrochloride]: the figures for the IC50 on HO-1 (rat spleen) (setting [1]) and on HO-2 (rat brain) (setting [2]) were 4 ± 0.7 µM and above 100 µM, respectively.

For the molecule `c1ccc(Cc2ccc(C3(Cn4ccnc4)OCCO3)cc2)cc1` [1-[2-(4-benzyl-phenyl)-[1,3]dioxolan-2-ylmethyl]-1H-imidazole hydrochloride], the results for the IC50 at HO-1 (rat spleen) (setting [1]) and at HO-2 (rat brain) (setting [2]) were 4.98 ± 0.08 µM and above 100 µM, respectively.

Take `Brc1ccc(C2(Cn3ccnc3)OCCO2)cc1` [1-[2-(4-bromo-phenyl)-[1,3]dioxolan-2-ylmethyl]-1H-imidazole hydrochloride]: the figures for the IC50 at HO-1 (rat spleen) (setting [1]) and on HO-2 (rat brain) (setting [2]) were 12 ± 2 µM and above 100 µM, respectively.

Take `Clc1ccc(C2(Cn3cncn3)OCCO2)cc1` [1-[2-(4-chloro-phenyl)-[1,3]dioxolan-2-ylmethyl]-1H-[1,2,4]triazole]: the IC50 on HO-1 (rat spleen) (setting [1]) is 68.7 ± 0.6 µM; at HO-2 (rat brain) (setting [2]), above 100 µM.
